Measurements taken from patent US20230094196A1, “AN IMPLANTABLE MEDICAL DEVICE” (NATIONAL UNIVERSITY OF IRELAND, GALWAY, priority 2019, published 2023).
Like-named read-outs stand apart in the source and are kept apart here.

Conditions: for time to therapeutic effect (time when dP/dt max leveled off): n=1
Description: Female Sprague Dawley rats (225-300 g) were anaesthetized using isoflurane (1-3% isoflurane in oxygen). Animals were treated with a single dose of sustained release buprenorphine (Bup-SR) at 1 mg/kg subcutaneously to control pain. 2 device of the invention reservoirs (porous or non-porous) were implanted subcutaneously in the rat, the device implantation procedure is shown in FIG. 3A. Briefly, the hair on the back of the rat was removed and surgical sites were prepared with 3 washes of Betadine and 70% ethanol. Devices were sterilized using ethylene oxide prior to implantation. An anterior incision was made at the base of the neck for the and 2 posterior incisions were made 9 cm from the original incision along the back of the rat, 1 cm lateral of the spine. A blunt dissection was made at all incisions and a forceps was used to tunnel subcutaneously from the anterior to the posterior sites. A vascular access button, or self-sealing subcutaneous port (VAB95BS-MRI, VABM2B/22R22, VABR4B/22 Instech Laboratories), was connected to the dorsal end of the catheter of each device of the invention reservoir. The port was placed in position at the base of the neck and the devices tunneled posteriorly into position. The port was secured to the underlying fascia using at least one interrupted suture (5-0 monofilament). Each device of the invention reservoir was secured to the underlying fascia with one suture at either side (7-0 monofilament). The skin was closed with interrupted sutures (5-0 monofilament) and the animal was allowed to recover on a heated pad. 3 mL of warm saline were administered subcutaneously. The following day, one of the two implanted device of the invention reservoirs was actuated at controlled input pressures of 1 PSI (Regime 1) or 2 PSI (Regime 2) at 1 Hz every 12 hours for 14 days (FIG. 3b) and compared to the non-actuated control reservoir for analysis. On day 15, animals were sacrificed by CO2. Following sacrifice, each device and the immediate surrounding tissue were extracted.

Structure (SMILES): CNC[C@H](O)c1ccc(O)c(O)c1 [epinephrine]
- time to therapeutic effect (time when dP/dt max leveled off) (actuated device, 35 uL of 1 mg/ml): ~40 s
- time to therapeutic effect (time when dP/dt max leveled off) (control (non-actuated) device, same animal): ~170 s
- cyclical average dp/dt max in the first 40 s after delivery, actuation group compared with control (first 40 s after delivery, P<0.0001): significantly higher
